Where a name gives a salt, the structure may show the parent alone.
Legend:
D(2) dopamine receptor = D(2) dopamine receptor (Rattus norvegicus, UniProt P61169)
[1] = target: T1, Alpha-1A adrenergic receptor (Rattus norvegicus, UniProt P43140)
T1 sequence (P43140 whole entry): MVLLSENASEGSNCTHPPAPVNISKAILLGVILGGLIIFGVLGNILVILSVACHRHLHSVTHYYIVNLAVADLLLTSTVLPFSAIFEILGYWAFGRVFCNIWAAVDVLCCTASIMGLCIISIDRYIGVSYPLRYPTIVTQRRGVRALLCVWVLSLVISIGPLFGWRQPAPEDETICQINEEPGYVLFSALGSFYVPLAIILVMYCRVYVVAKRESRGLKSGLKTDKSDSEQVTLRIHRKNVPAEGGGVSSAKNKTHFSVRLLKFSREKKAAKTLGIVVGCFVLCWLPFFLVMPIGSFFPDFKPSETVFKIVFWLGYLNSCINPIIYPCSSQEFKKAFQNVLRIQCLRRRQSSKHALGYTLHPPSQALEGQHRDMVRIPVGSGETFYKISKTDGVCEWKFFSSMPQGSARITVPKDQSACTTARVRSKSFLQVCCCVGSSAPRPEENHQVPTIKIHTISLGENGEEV

[2] = target: T2, Muscarinic acetylcholine receptor M2 (Rattus norvegicus, UniProt P10980)
T2 sequence (P10980 whole entry): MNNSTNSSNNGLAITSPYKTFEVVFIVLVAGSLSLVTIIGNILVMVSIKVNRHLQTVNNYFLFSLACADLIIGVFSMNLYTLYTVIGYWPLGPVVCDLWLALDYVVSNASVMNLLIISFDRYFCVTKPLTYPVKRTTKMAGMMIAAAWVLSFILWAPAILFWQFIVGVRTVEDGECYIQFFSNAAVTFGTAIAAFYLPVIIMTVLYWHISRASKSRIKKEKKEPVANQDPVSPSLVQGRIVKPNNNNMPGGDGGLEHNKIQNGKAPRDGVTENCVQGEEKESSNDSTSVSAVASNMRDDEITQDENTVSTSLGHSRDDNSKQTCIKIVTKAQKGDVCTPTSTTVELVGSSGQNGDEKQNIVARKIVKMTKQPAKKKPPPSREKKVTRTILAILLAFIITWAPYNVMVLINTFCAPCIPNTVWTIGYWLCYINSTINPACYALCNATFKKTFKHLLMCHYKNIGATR

[3] = target: 5-hydroxytryptamine receptor 2A (Rattus norvegicus, UniProt P14842)
[4] = target: Norepinephrine transporter (Rattus norvegicus, UniProt Q9JIA2)
[5] = target: Sodium-dependent serotonin transporter (Rattus norvegicus, UniProt P31652)
Chain of Sodium-dependent serotonin transporter (P31652 whole entry): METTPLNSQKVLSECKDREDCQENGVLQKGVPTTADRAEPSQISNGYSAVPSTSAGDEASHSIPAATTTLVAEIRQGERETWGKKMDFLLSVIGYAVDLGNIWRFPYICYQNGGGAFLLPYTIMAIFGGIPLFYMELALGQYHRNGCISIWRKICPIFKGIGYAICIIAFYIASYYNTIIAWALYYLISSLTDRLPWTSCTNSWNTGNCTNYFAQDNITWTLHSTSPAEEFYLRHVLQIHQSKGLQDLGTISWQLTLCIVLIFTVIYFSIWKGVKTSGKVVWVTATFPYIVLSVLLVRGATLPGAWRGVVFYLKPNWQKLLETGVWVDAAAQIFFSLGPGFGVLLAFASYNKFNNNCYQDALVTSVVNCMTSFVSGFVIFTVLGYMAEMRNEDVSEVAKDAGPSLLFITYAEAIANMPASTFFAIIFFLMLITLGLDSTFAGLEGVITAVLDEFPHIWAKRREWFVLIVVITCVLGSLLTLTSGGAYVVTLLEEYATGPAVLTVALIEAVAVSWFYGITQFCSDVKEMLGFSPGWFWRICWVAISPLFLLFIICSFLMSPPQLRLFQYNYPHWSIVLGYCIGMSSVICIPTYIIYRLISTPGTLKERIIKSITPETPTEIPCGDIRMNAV

Chain of D(2) dopamine receptor (P61169 whole entry): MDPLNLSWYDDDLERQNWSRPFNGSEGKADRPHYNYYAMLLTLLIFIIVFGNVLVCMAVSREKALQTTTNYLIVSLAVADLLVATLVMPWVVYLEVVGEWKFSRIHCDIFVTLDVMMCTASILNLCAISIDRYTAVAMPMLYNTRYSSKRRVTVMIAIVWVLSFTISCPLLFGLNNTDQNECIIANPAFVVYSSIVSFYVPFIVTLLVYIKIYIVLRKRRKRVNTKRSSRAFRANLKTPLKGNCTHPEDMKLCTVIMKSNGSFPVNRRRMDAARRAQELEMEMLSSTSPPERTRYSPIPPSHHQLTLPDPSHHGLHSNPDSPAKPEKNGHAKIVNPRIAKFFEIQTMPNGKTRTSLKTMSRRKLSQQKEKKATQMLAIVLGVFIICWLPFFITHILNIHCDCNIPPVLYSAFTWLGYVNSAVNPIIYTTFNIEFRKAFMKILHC
Chain of 5-hydroxytryptamine receptor 2A (P14842 whole entry): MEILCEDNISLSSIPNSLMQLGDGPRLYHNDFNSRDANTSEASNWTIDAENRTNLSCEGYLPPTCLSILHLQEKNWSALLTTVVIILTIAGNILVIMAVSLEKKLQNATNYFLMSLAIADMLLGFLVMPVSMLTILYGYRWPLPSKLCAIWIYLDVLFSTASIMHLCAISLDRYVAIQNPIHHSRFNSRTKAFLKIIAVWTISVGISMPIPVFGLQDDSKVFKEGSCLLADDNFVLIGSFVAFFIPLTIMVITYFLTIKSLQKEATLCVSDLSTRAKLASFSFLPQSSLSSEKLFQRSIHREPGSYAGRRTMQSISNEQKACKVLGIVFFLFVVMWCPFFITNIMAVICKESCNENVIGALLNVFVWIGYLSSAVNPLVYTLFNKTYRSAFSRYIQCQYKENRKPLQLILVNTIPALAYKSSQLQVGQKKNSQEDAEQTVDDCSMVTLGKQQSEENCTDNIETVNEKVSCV

| Compound | Ki (D(2) dopamine receptor) [nM] | Ki [1] [nM] | Ki [2] [nM] | Ki [3] [nM] | Ki [4] [nM] | Ki [5] [nM] |
| --- | --- | --- | --- | --- | --- | --- |
| CN[C@H]1C[C@H](c2ccc(Cl)c(Cl)c2)c2ccccc21 [CAS_96850-13-4] | > 10000 | 740 | > 10000 | – | – | – |
| COc1ccc2c(c1)CN(C)CC2c1ccc(Cl)c(Cl)c1 (stereo unspecified) | > 10000 | 480 | 3700 | 550 | 2.3 | – |
| CNCCCC1(c2ccccc2)SC(C)(C)c2ccccc21 (stereo unspecified) [Talsupram] | > 10000 | > 10000 | 1300 | 1600 | 0.79 | 850 |
| CN(C)CCCC1(c2ccc(F)cc2)OCc2cc(C#N)ccc21 (stereo unspecified) [CITALOPRAM HYDROBROMIDE] | > 10000 | 1600 | 4800 | – | – | – |
| Fc1ccc(C(OCCN2CCN(C/C=C/c3ccccc3)CC2)c2ccc(F)cc2)cc1 | 810 | 2200 | 2200 | 3400 | 13 | – |
| C(=C\c1ccccc1)/CN1CCN(CCOC(c2ccccc2)c2ccccc2)CC1 [CAS_67469-75-4] | 2500 | 270 | 900 | 1000 | 29 | 1900 |
| CNCCC(Oc1ccccc1OC)c1ccccc1 (stereo unspecified) [3-(2-methoxyphenoxy)-N-methyl-3-phenylpropan-1-amine] | > 10000 | 4300 | 5000 | 620 | – | – |
| CN1Cc2c(N)cccc2[C@H](c2ccccc2)C1 [(+/-)-2-Methyl-4-phenyl-1,2,3,4-tetrahydro-isoquinolin-8-ylamine] | > 10000 | 1200 | > 10000 | – | 6.6 | – |
| CN(C)C[C@@H]1C2CCC(CC2)[C@@H]1c1ccc(Cl)c(Cl)c1 | 570 | > 10000 | > 10000 | > 10000 | 5.4 | 51 |
| CC(NC(C)(C)C)C(=O)c1cccc(Cl)c1 (stereo unspecified) [BUPROPION HYDROCHLORIDE] | > 10000 | > 10000 | > 10000 | – | 1500 | – |

From BindingDB's records for doi:10.1111/j.1471-4159.1985.tb08803.x (Lundbeck Ais, 1985)
